From ChEMBL document CHEMBL1140260, “Synthesis and SAR of diazepine and thiazepine TACE and MMP inhibitors” (Bioorg Med Chem Lett, 2005) come the findings set out here.

In data set [1] the test system is Mus musculus. Nature of the data set: Percent inhibition ofTNF-alpha release 1 hr after oral dosing at 25 mpk. Format: functional.
For data set [2], the system named is THP-1. In words: Percent inhibition against LPS stimulated THP-1 cellular assay at 3 uM. Format: functional. The following applies: Homo sapiens.
A further data set addresses Collagenase 3 (Homo sapiens, UniProt P45452).
The target of data set [3] is Disintegrin and metalloproteinase domain-containing protein 17 (Homo sapiens, UniProt P78536). Nature of the data set: Inhibitory concentration against TNF-alpha converting enzyme at 1 uM.
In data set [4] the test system is Mus musculus. Nature of the data set: Percent inhibition ofTNF-alpha release 1 hr after oral dosing at 50 mpk. Format: functional.
In data set [5] the test system is Mus musculus. In words: Percent inhibition ofTNF-alpha release 6 hr after oral dosing at 50 mpk. Format: functional.
The target of data set [6] is T1, Interstitial collagenase (Homo sapiens) (UniProt P03956).
T1 sequence (whole entry): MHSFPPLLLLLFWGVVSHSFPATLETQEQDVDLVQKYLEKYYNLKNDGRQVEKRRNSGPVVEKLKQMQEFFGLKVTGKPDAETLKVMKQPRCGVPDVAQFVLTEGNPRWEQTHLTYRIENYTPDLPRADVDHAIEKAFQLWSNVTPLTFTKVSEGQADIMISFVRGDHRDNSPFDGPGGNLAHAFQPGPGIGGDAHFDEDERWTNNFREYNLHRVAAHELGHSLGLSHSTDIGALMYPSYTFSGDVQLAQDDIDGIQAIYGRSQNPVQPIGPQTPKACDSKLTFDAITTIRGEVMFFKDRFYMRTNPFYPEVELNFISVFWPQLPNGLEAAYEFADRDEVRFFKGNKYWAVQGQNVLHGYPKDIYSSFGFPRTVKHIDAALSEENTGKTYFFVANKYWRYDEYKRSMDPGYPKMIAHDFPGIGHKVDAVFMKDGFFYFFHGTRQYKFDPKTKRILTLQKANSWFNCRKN
Nature of the data set: Percent inhibition against matrix metalloprotease-1 at 1 uM.

Data set [7] addresses T1, Interstitial collagenase (Homo sapiens). In words: (§1) Inhibitory concentration against matrix metalloprotease-1 at 1 uM.
Another data set concerns the target T2, Interstitial collagenase (Homo sapiens, UniProt P03956).
T2 sequence (P03956 whole entry): T1 sequence (whole entry)
The description is as §1.

Data set [8] has as its system THP-1. In words: Percent inhibition against LPS stimulated THP-1 cellular assay at 1 uM. Format: functional. The following applies: Homo sapiens.
The subject of data set [9] is THP-1. Nature of the data set: Percent inhibition against LPS stimulated THP-1 cell assay at 3 uM. Format: functional. Particulars: Homo sapiens.
For data set [10], the system named is Mus musculus. In words: Percent reduction induced by compound in the mouse collagen induced arthritis model after 35 days of peroral dosing at 20 mpk, twice daily. Format: functional.
A short description of data set [11]: Volume of distribution of compound in mice. Format: ADME, organism-based. The following applies: mouse, in vivo.
Data set [12] relates to Mus musculus. Nature of the data set: Oral bioavailability of compound in mice. Format: functional, organism-based.
Data set [13] deals with Mus musculus. Nature of the data set: Half life of compound in mice after i.v. administration at 5 mg/kg. Format: functional, organism-based. Also noted: dose 5 mg/kg.
Data set [14] concerns Mus musculus. In words: Half life of compound in mice after i.p. administration at 10 mg/kg. Format: functional, organism-based. Also noted: dose 10 mg/kg.
Data set [15] is filed under the species Mus musculus. Nature of the data set: Plasma clearance of compound in mice plasma. Format: functional, organism-based.
Data set [16] relates to Mus musculus. Nature of the data set: Half life of compound in mice after p.o. administration at 50 mg/kg.

Disintegrin and metalloproteinase domain-containing protein 17, sequence (P78536 whole entry, the tested form may be a part): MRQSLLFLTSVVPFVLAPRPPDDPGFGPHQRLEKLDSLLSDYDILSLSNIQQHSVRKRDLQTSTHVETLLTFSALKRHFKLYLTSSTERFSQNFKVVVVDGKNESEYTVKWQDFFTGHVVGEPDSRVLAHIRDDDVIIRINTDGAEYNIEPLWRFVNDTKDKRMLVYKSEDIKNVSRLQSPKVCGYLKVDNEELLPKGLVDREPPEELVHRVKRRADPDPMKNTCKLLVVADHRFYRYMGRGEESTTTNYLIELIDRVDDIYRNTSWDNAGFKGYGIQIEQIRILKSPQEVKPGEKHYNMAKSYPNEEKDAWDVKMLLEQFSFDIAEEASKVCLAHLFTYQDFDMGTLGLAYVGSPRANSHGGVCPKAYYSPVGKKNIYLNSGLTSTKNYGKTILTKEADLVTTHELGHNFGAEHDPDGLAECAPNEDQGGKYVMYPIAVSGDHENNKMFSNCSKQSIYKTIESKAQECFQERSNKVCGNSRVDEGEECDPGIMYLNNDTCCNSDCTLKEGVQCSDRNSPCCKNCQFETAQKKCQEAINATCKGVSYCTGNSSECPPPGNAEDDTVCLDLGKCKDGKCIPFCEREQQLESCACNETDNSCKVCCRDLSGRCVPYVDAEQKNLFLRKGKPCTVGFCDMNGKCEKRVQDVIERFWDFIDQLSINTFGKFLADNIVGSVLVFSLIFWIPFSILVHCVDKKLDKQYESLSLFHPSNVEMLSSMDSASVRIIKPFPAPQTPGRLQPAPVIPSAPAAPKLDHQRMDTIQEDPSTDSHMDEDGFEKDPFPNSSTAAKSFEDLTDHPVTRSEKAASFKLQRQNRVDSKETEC
Description for Collagenase 3: Inhibitory concentration against Matrix metalloprotease-13 at 1 uM

Turning to `CC#CCOc1ccc(S(=O)(=O)N2CCCN(C(C)=O)CC2C(=O)NO)cc1` (stereo not drawn), the inhibition in vivo – broadly, the drop in the measured response relative to a control, in per cent – at 25 mg/kg in the data set on Mus musculus [1] was found to be 10%. For the same compound, at 3 µM the inhibition in the data set on THP-1 [2] was 74%. For the same compound, the 50% inhibitory concentration (IC50) (as a rule, the concentration at which inhibition is half-maximal) on Collagenase 3 stood at 305 nM; in [3], 4 nM.
`CC#CCOc1ccc(S(=O)(=O)N2CCN(C(=O)c3ccccc3)CCC2C(=O)NO)cc1` (stereo not drawn): the inhibition in vivo at 50 mg/kg with Mus musculus [4] came to 35%; with Mus musculus [5], 0%.
`CC#CCOc1ccc(S(=O)(=O)N2CCCN(C(=O)NCCCCCC)CC2C(=O)NO)cc1` (stereo not drawn): the inhibition (usually the drop in the measured response relative to a control, in per cent) at 3 µM in the data set with THP-1 [2] was determined as 36%. The same compound returned an inhibition in [6] of 34%. Further, the half-maximal inhibitory concentration (IC50) was 307 nM against Collagenase 3 and 14 nM in data set [3].
On the same counts, the results for `CC#CCOc1ccc(S(=O)(=O)N2CCCN(C(=O)CCCN(C)C)CC2C(=O)NO)cc1` (stereo not drawn) are 33%, 19%, 395 nM and 75 nM.
On to `CC#CCOc1ccc(S(=O)(=O)N2CCCN(C(=O)c3cccs3)CC2C(=O)NO)cc1` (stereo not drawn), for which, in the data set on THP-1 [2], the inhibition at 3 µM is 41%. For the same compound, the IC50 against Collagenase 3 amounted to 142 nM; in data set [3], 10 nM.
The compound `CC#CCOc1ccc(S(=O)(=O)N2CCCN(C)CC2C(=O)NO)cc1` (stereo not drawn) yielded an inhibition in [7] of 36%. Moreover, in the data set with THP-1 [2], the inhibition at 3 µM turned out to be 42%. In addition, the IC50 against Collagenase 3 worked out at 180 nM; in [3] it was 24 nM.
Regarding `CC#CCOc1ccc(S(=O)(=O)N2CCCN(S(=O)(=O)CCC)CC2C(=O)NO)cc1` (stereo not drawn), in the data set with Mus musculus [1], the inhibition in vivo at 25 mg/kg stood at 0%. Further, in the data set with THP-1 [2], the inhibition at 3 µM worked out at 74%. Further, the IC50 stood at 1140 nM at Interstitial collagenase, 140 nM against Collagenase 3 and 30 nM in [3].
For `CC#CCOc1ccc(S(=O)(=O)N2CCCN(C(=O)CN)CC2C(=O)NO)cc1` (stereo not drawn), 3 µM produced 62% inhibition with THP-1 [2]. The IC50 against Interstitial collagenase worked out at 3030 nM; against Collagenase 3, 1060 nM; in [3], 12 nM.
Regarding `CC#CCOc1ccc(S(=O)(=O)N2CCCN(C(=O)CNC(=O)OC(C)(C)C)CC2C(=O)NO)cc1` (stereo not drawn), testing at 25 mg/kg in the data set with Mus musculus [1] gave an inhibition in vivo of 68%. This compound came in with an inhibition at 3 µM with THP-1 [2] of 71%. Besides, the half-maximal inhibitory concentration (IC50) against Interstitial collagenase worked out at 4580 nM; against Collagenase 3, 446 nM; in [3] it was 7 nM.
For `CC#CCOc1ccc(S(=O)(=O)N2CCN(CC)CCC2C(=O)NO)cc1` (stereo not drawn), testing at 1 µM with THP-1 [8] gave an inhibition of 57%. The IC50 against Interstitial collagenase was 285 nM; on Collagenase 3, 17 nM; in data set [3], 37 nM.
As to `CC#CCOc1ccc(S(=O)(=O)N2CCCN(S(=O)(=O)c3ccccc3)CC2C(=O)NO)cc1` (stereo not drawn), testing at 25 mg/kg in the data set with Mus musculus [1] gave an inhibition in vivo of 46%. The compound further had an inhibition at 3 µM with THP-1 [2] of 62%. In [6], this compound displayed an inhibition of 39%. Also, the 50% inhibitory concentration (IC50) is 88 nM against Collagenase 3 and 68 nM in data set [3].
On the same counts, the results for `CC#CCOc1ccc(S(=O)(=O)N2CCCN(S(C)(=O)=O)CC2C(=O)NO)cc1` (stereo not drawn) are 35%, 71%, 40%, 128 nM and 5 nM.
As to `CC#CCOc1ccc(S(=O)(=O)N2CCN(C)CCC2C(=O)NO)cc1` (stereo not drawn), the values for the inhibition in vivo at 50 mg/kg with Mus musculus [4] and in the data set on Mus musculus [5] were 32% and 39%, respectively.
`CC#CCOc1ccc(S(=O)(=O)N2CCN(C(=O)CC)CCC2C(=O)NO)cc1` (stereo not drawn) came in with an inhibition at 1 µM in the data set on THP-1 [8] of 63%. Further, the IC50 at Interstitial collagenase was 207 nM; on Collagenase 3, 20 nM; in data set [3] it was 19 nM.
In the case of `CC#CCOc1ccc(S(=O)(=O)N2CCCN(C(=O)OC(C)(C)C)CC2C(=O)NO)cc1` (stereo not drawn), in data set [6], the inhibition is 26%. Moreover, the inhibition at 3 µM in the data set on THP-1 [9] turned out to be 13%. Further, the half-maximal inhibitory concentration (IC50) turned out to be 363 nM against Collagenase 3 and 35 nM in data set [3].
For `CC#CCOc1ccc(S(=O)(=O)N2CCNCCC2C(=O)NO)cc1` (stereo not drawn), the Reduction with Mus musculus [10] worked out at 56%. For the same compound, the inhibition in vivo at 50 mg/kg with Mus musculus [4] was found to be 97%; in the data set on Mus musculus [5], 62%. On Collagenase 3, this compound gave an IC50 of 32 nM. Also, the distribution volume (Vd) (in general, the apparent volume that relates the amount in the body to the concentration in plasma or blood) in data set [11] was 2.49 L/kg. Besides, the bioavailability in the data set on Mus musculus [12] is 18%. Also, the T1/2 in the data set on Mus musculus [13] came to 1.43 h; with Mus musculus [14] it was 2.64 h; in the data set with Mus musculus [16] it was 0.86 h. Further, in the data set listed under Mus musculus [15], the CL (mL.min-1.kg-1) worked out at 64.3.
Compound `CC#CCOc1ccc(S(=O)(=O)N2CCCS(=O)(=O)CC2C(=O)NO)cc1` (stereo not drawn) gave an inhibition in vivo at 50 mg/kg in the data set on Mus musculus [4] of 77%. For the same compound, the IC50 was found to be 334 nM on Interstitial collagenase, 311 nM at Collagenase 3 and 28 nM in data set [3].
As to `CC#CCOc1ccc(S(=O)(=O)N2CCN(C(=O)COC)CCC2C(=O)NO)cc1` (stereo not drawn), testing at 3 µM in the data set on THP-1 [2] gave an inhibition of 79%. The figures for the concentration for half-maximal inhibition (IC50) (on Interstitial collagenase; on Collagenase 3; in data set [3]) were 277 nM, 31 nM and 15 nM, respectively.
`CC#CCOc1ccc(S(=O)(=O)N2CCCNCC2C(=O)NO)cc1` (stereo not drawn) came in with an inhibition in vivo at 25 mg/kg in the data set with Mus musculus [1] of 4%. The inhibition at 3 µM in the data set with THP-1 [2] turned out to be 43%. Further, the results for the 50% inhibitory concentration (IC50) (on Interstitial collagenase; against Collagenase 3; in data set [3]) were 576 nM, 225 nM and 11 nM, respectively.
`CC#CCOc1ccc(S(=O)(=O)N2CCN(C(=O)C(C)C)CCC2C(=O)NO)cc1` (stereo not drawn) showed an inhibition at 3 µM with THP-1 [2] of 95%. For the same compound, the 50% inhibitory concentration (IC50) against Interstitial collagenase turned out to be 142 nM; on Collagenase 3, 9 nM; in data set [3] it was 23 nM.
Take `CC#CCOc1ccc(S(=O)(=O)N2CCSCCC2C(=O)NO)cc1` (stereo not drawn): the inhibition in vivo at 50 mg/kg in the data set with Mus musculus [4] was 70%; in the data set on Mus musculus [5], 41%. Also, the half-maximal inhibitory concentration (IC50) against Interstitial collagenase was found to be 171 nM; against Collagenase 3, 11 nM.
In turn, `CC#CCOc1ccc(S(=O)(=O)N2CCS(=O)(=O)CCC2C(=O)NO)cc1` (stereo not drawn) showed an inhibition in vivo at 50 mg/kg in the data set on Mus musculus [4] of 94%. This compound also had an inhibition at 3 µM in the data set with THP-1 [2] of 92%. The half-inhibitory concentration (IC50) against Interstitial collagenase came out at 114 nM; against Collagenase 3 it was 8 nM; in data set [3], 19 nM.
Compound `CC#CCOc1ccc(S(=O)(=O)N2CCCSCC2C(=O)NO)cc1` (stereo not drawn) showed an inhibition in vivo at 50 mg/kg in the data set with Mus musculus [4] of 24%. This compound also showed an inhibition at 3 µM in the data set on THP-1 [2] of 80%. Further, the IC50 against Interstitial collagenase stood at 408 nM; at Collagenase 3, 36 nM; in data set [3] it was 20 nM.
`CC#CCOc1ccc(S(=O)(=O)N2CCCN(Cc3ccccc3)CC2C(=O)NO)cc1` (stereo not drawn) gave an inhibition at 3 µM in the data set with THP-1 [2] of 41%. Also, the half-maximal inhibitory concentration (IC50) against Interstitial collagenase came out at 212 nM; against Collagenase 3 it was 52 nM; in data set [3], 61 nM.
As for `CC#CCOc1ccc(S(=O)(=O)N2CCN(C(=O)OC(C)(C)C)CCC2C(=O)NO)cc1` (stereo not drawn), the inhibition in vivo at 50 mg/kg with Mus musculus [4] was determined as 88%; in the data set with Mus musculus [5], 43%.
For `CC#CCOc1ccc(S(=O)(=O)N2CCN(Cc3ccccc3)CCC2C(=O)NO)cc1` (stereo not drawn), the inhibition in vivo at 50 mg/kg with Mus musculus [4] amounted to 17%; in the data set with Mus musculus [5], 0%.
